Reference: patent publication US8703752B2 (priority 2003, dated 2014)

Tests used:
[1] = test system: Hedgehog protein signaling pathway; test: Inhibition of Shh-induced differentiation of C3H10T1/2 cells (alkaline phosphatase activity, OD 415 nm); assay type: cell-based, mouse; details: for inhibition of the alkaline phosphatase activity induced by the overexpression of Shh: 10 μM, 5 days, C3H10T1/2 cells transfected with Shh plasmid pRK5
Protocol: The differentiation of the C3H10T1/2 cells, which is accompanied by induction of alkaline phosphatase activity, is then evaluated by measuring the optical density at 415 nm, in the presence of the alkaline phosphatase substrate, para-nitrophenyl phosphate. The values indicated correspond to the mean±standard error (n=4), and
The inhibition of differentiation of the C3H10T1/2 cells is expressed through the percentage alkaline phosphatase activity, relative to the nontreated cells (maximum activity=100%). The values indicated correspond to the mean±standard error (n=4) of two independent experiments.
The C3H10T1/2 pluripotent fibroblast cell line (ATCC) is cultured under the conditions recommended by the ATCC. C3H10T1/2 cells were transfected with the plasmid pRK5 encoding the mouse Shh protein (Taipale et al., Nature, 2001, 411, 349-354), using calcium phosphate, according to conventional protocols.

mammalian embryos = details: cited from earlier work
glucocorticoid receptors = glucocorticoid receptors (Homo sapiens, UniProt P04150); details: cited from earlier work
Chain of glucocorticoid receptors (P04150 whole entry): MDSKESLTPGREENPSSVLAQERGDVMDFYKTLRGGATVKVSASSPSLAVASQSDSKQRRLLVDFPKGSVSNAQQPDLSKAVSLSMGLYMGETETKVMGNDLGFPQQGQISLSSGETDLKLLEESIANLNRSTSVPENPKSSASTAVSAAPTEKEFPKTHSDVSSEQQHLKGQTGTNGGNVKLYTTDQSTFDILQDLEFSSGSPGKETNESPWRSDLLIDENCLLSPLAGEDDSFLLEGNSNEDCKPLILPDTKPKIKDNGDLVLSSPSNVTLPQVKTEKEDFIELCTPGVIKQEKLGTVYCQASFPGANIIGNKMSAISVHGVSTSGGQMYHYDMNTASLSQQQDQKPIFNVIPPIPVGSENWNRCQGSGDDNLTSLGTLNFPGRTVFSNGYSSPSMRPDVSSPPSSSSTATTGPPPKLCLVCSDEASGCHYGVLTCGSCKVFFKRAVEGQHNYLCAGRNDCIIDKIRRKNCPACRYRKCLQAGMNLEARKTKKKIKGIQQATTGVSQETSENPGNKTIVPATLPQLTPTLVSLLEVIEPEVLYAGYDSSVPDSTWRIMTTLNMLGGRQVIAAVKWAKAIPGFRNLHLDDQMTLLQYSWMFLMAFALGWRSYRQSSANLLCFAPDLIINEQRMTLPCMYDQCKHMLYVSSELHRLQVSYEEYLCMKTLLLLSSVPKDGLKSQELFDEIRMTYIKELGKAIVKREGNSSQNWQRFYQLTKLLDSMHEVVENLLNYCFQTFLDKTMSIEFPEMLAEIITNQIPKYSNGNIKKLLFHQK

SMILES | inhibition of the alkaline phosphatase activity induced by the overexpression of Shh [1] | IC50 ([1]; C3H10T1/2 cells transfected with Shh plasmid pRK5, treated 5 days, 1 nM to 10 μM, alkaline phosphatase activity, mean±standard error (n=4), two experiments, read-out: concentration that inhibits 50% of cell differentiation (IC50)) [µM] | teratogenic effect (mammalian embryos) | affinity for glucocorticoid receptors (glucocorticoid receptors)
CC#C[C@]1(O)CC[C@H]2[C@@H]3CCC4=CC(=O)CCC4=C3[C@@H](c3ccc(N(C)C)cc3)C[C@@]21C [mifepristone, 17β-hydroxy-11β-(4-dimethylaminophenyl)-17α-(prop-1-ynyl)estra-4,9-dien-3-one] | completely inhibits | 3.7 | devoid of any teratogenic effect | strong affinity
CC1=C2C[C@H]3[C@@H](CC=C4C[C@@H](O)CC[C@@]43C)[C@@H]2CC[C@]12O[C@@H]1C[C@H](C)CN[C@H]1[C@H]2C [cyclopamine] | completely inhibited |  | teratogenic agent that causes holoprosencephaly and cyclopia | 
